This passage reports IC50 results from article PMC5773535, “Plasmodium dihydrofolate reductase is a second enzyme target for the antimalarial action of triclosan” (Scientific Reports, 2018).

SMILES strings stand for the structures.

As usually defined, the IC50 is the concentration at which inhibition is half-maximal. Low values mean higher potency, high ones lower potency.

In assay [1] the target is T1, human dihydrofolate reductase (HsDHFR) (Homo sapiens, UniProt P00374).
T1 construct: gene DHFR
T1 sequence (P00374 1-187): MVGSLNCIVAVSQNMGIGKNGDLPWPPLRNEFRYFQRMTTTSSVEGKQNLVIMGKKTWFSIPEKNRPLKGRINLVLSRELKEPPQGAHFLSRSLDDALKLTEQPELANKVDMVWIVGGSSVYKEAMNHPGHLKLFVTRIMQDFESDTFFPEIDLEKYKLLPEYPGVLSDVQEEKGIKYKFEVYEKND
Briefly: spectrophotometric DHFR assay at […] nm (NADPH/DHF consumption), purified enzyme. It is filed as biochemical.

For assay [2], the target named is P. vivax dihydrofolate reductase (PvDHFR) (Plasmodium vivax, UniProt O02604). The assay is described as above. It is filed as biochemical.
Sequence of P. vivax dihydrofolate reductase (PvDHFR) (O02604 1-240): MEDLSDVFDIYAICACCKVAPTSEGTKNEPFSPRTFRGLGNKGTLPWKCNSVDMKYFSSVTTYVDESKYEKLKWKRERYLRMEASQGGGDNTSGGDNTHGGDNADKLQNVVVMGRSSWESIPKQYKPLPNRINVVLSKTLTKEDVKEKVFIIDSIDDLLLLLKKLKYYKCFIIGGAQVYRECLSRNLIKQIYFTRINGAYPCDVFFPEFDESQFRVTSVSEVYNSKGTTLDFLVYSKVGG

As to `Oc1cc(Cl)ccc1Oc1ccc(Cl)cc1Cl` [triclosan], the concentration for half-maximal inhibition (IC50) in assay [1] stood at 17.2 ± 4.9 µM; in assay [2], 0.775 ± 0.384 µM.
